Holding throughout (assay type): cell-based
In one assay the test system is Raw 264.7 cells. Briefly: NO production inhibition, LPS-treated cells, NO quantification kit. The note with it: positive control, 200 ppm. The method, then: In order to verify the skin soothing and anti-inflammatory effects of the bee pollen exosome raw material prepared in Preparation Example 2, the NO production inhibitory effect was measured as follows, and compared with those of the pollen extract raw material, the bee pollen extract raw material, and the plant-derived exosome raw material which are the control groups.
In detail, the NO production inhibitory effects of the above samples were measured using Raw 264.7 cells. As a positive control, 20 mg/ml L-NMMA1 (NOS inhibitor) was used, and the samples were diluted to 0.01% and 0.1% concentrations (v/v %) and treated for 30 minutes, followed by treatment with 1 μg/ml LPS and culturing for 24 hours. Then, the ability to inhibit NO production was evaluated using a NO quantification kit as follows. All results were expressed as mean±standard deviation (SD) after three or more independent experiments.
NO production inhibitory ability (%)=(1−([…] NO production amount with sample addition))/(NO production amount without sample addition)×100

For the next assay, the system named is B16f10 melanocytes. Briefly: Melanin production inhibition in melanocytes. The following applies: Mus musculus, B16-F10, positive control, read-out: inhibition of melanin synthesis. The method, then: In order to verify the whitening effect of the bee pollen exosome raw material prepared in Preparation Example 2, the melanin production-inhibitory effect was measured as follows.
In detail, the whitening efficacy of the bee pollen exosome raw material was evaluated by measuring the degree of reduction in the amount of melanin pigment present in melanocytes. The bee pollen exosome raw material was diluted to 0.01% and 0.1% concentrations (v/v %), and B16f10 melanocytes were treated therewith, and cultured for 72 hours, and melanin was quantified to evaluate the whitening efficacy. The melanin content was calculated based on the total protein amount, and the melanin production inhibition rate was calculated as %, based on a DMSO control group. 200 ppm of arbutin was treated as a positive control group.
In detail, the bee pollen extract raw material was prepared by grinding the same amount of bee pollens in the same manner as in preparing the bee pollen exosome, and by extracting using a general low-temperature extraction method of using purified water for 24 hours to 72 hours under the same temperature conditions (4° C. to 25° C.). […]

Assay [1] deals with human dermal fibroblast (HDF) cells. The assay is described as follows: Collagen synthesis efficacy (procollagen type I C-peptide EIA). The note with it: positive control, 10 ng/ml, compared to untreated group. The method, then:
To verify the collagen synthesis effect of the bee pollen exosome raw material prepared in Preparation Example 2, measurements were performed as follows.
In detail, the collagen synthesis effect was evaluated using human dermal fibroblast (HDF) cells. After pre-treating the cells with the bee pollen exosome raw material sample for 48 hours, collagen synthesis efficacy was measured using a human procollagen type I C-peptide (PIP) EIA kit. The collagen synthesis efficacy of the sample was determined by calculating the increased value in percentage (%), as compared to the untreated control group, and the results are shown in a table. 10 ng/ml TGF-b was used as a positive control group.
All of the above samples were diluted to 0.01% and 0.1% concentrations (v/v %) and evaluated.

By inhibition is commonly meant the drop in the measured response relative to a control, in per cent.

In the case of `CNC(=N)NCCC[C@H](N)C(=O)O` [L-NMMA1], in the assay with Raw 264.7 cells, the “NO production inhibition ability” value worked out at 59.17%.

For the molecule `OC[C@H]1O[C@@H](Oc2ccc(O)cc2)[C@H](O)[C@@H](O)[C@@H]1O` [arbutin], the inhibition at 200 ppm in the assay on B16f10 melanocytes came to 38.1%.

In the case of “TGF-b: 10 ng/ml TGF-b used as positive control for collagen synthesis”, the collagen synthesis increase in assay [1] stood at 29.87%.

Values taken from patent US20240173249A1, “COSMETIC COMPOSITION CONTAINING BEE POLLEN EXOSOME” (LG HOUSEHOLD & HEALTH CARE LTD., priority 2022, published 2024).
